In article PMC12257394, “Design, Synthesis, and Biological Evaluation of Ferrocenyl–Cyclo-(Gly‑L‑Pro) Hybrids Sensitizing Multidrug-Resistant Cancer Cells to Anticancer Agents” (ACS Medicinal Chemistry Letters, 2025):

Columns and labels:
Assay type in all cases: cell-based, human
[1] = system: SW620M cells; test: Synergy determination (Bliss model, SynergyFinder), SW620M; conditions: drug methotrexate + additive; for synergy score: Bliss model
Source text: (§1) In an ideal setting, the effect of cell exposure to a combination of a chemotherapeutic and an MDR inhibitor should be synergistic. […] The highest synergy scores identified an optimal concentration range where the combination exerted its maximal effect. […] In cisplatin-resistant SW620C cells, the low or lack of synergy observed for most compounds may be due to the additive effects of cisplatin and 4 rather than a true synergistic interaction. […]
(§2) To evaluate the potential interactions between putative ABC inhibitors and anticancer drugs, we utilized the Bliss independence model, as implemented in the SynergyFinder web application.13, 14 Synergy scores and the most synergistic area scores were calculated based on the normalized dose–response matrices. A synergy score below −10 indicates likely […]
(§3) above 10 is indicative of likely synergistic interactions.
(§4) All experiments were performed at least three times, and the data were statistically analyzed

[2] = system: SW620D cells (doxorubicin-resistant); test: Neutral red uptake viability assay, SW620D; conditions: 72 h; for survival rate: n = 3, ± SD; for IC50: n = 3, read-out: Cytotoxic activity IC50 (95% CI)
Procedure: (§5) In general, compounds 4a–e exerted little or no cytotoxic effect on either SW620 or multidrug-resistant sublines even at 10 μM, with the remarkable exception of SW620C (cisplatin-selected variant of SW620) cells, which turned out to be relatively susceptible toward ferrocenyl 4a–c. […] This trend may reflect steric or electronic contributions to cellular uptake or interaction with intracellular targets. […] However, since E/Z isomeric data are currently available only for compound 4c, this hypothesis requires validation. To quantify this effect, IC50 values were determined (Table ). […]
(§6) The normal lung fibroblast MRC-5 and colorectal adenocarcinoma SW620 cell lines used in this experiment were purchased from American Type Culture Collection (USA) via LGC […]
(§7) Standards. Multidrug-resistant variants of SW620 cells were developed in our laboratory as described previously.10, 11 All cells were cultured under standard conditions (37°C, 5% CO2, 100% humidity) in high-glucose DMEM supplemented with GlutaMaxTM, HEPES (ThermoFisher Scientific, USA), and 10% fetal bovine serum (EURx, Poland). Cells were routinely tested for potential Mycoplasma contamination using the MycoProbe Mycoplasma Detection kit (R&D System, USA).
(§8) In total, 104 cells in 100 µL of complete medium were plated per well of a 96-well plate and left overnight to allow cells to adhere to the surface. Then, the cells were exposed to a desired concentration of tested compound(s). Stock solutions were prepared in DMSO and used immediately. The final DMSO concentration was constant and nontoxic (0.1% v/v). After 70-h incubation, neutral red was added to the final concentration of 1 mM. After another 2 h, the medium was aspirated, and cells were washed twice with PBS. Dye was released using 100 µL of a solubilizer (1% acetic acid in 50% ethanol) on an orbital shaker (10 min). Absorbance was read at 540 nm using EnVision Multilabel Plate Reader (Perkin Elmer, USA). Results were expressed as % of control. The IC50 parameters were calculated using GraphPad Prism version 10 (GraphPad Software, Boston, Massachusetts USA).
(§9) The enhancement of reversal potency (ERP) value determination
(§10) For MDR reversal assays, cytotoxic agents were co-administered with compounds 4a–4e at equimolar concentrations in a range of 10 nM to 100 µM. IC₅₀ values were determined in ABCB1-overexpressing SW620 cell line variants. The enhancement of reversal potency (ERP) was calculated using the following formula: ERP = IC₅₀(drug)MDR / IC₅₀(drug + compound)MDR. All experiments were performed in triplicate (n = 3).

[3] = system: SW620M cells (methotrexate-resistant); test: Neutral red uptake viability assay, SW620M; conditions: 72 h; for survival rate: n = 3, ± SD; for IC50: n = 3, read-out: Cytotoxic activity IC50 (95% CI)
Procedure: as §5, §6, §7
as §8, with “Massachusetts USA). […]” for “Massachusetts USA).”
All experiments were performed in triplicate (n = 3).

[4] = system: SW620 cells; test: Synergy determination (Bliss model, SynergyFinder), SW620;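 note: score below −10 means likely antagonism and −10 to 10 means additive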
Source text: as §1, §2, §3, §4

[5] = system: SW620V cells; test: Synergy determination (Bliss model, SynergyFinder), SW620V; conditions: drug vincristine + additive; for synergy score: Bliss model
Source text: as §1, §2, §3, §4

[6] = system: ABCG2-overexpressing SW620C cells; test: MDR reversal assay (ERP), SW620C; conditions: for ERP value, cisplatin + compound: SW620C (xlsx); for ERP = IC50(drug)MDR/IC50(drug+4)MDR: cisplatin, SW620C
Source text: We investigated the potency of 4a–e to inhibit ABC transporters (ABCB1, ABCC1, and ABCG2) by determining their enhancement of reversal potency (ERP) values. ERP represents fold changes in the IC50 values of anticancer drugs in multidrug-resistant cancer sublines (ABCB1-overexpressing SW620D, SW620E, and SW620V; ABCC1-overexpressing SW620M; ABCG2-overexpressing SW620C and SW620Mito) exposed to a combination of the investigated compounds and anticancer agents at equimolar concentrations, compared with values obtained with drugs alone (Tables S2 and S3 and Figure ).
as §7, §8, §9, §10

Row | Compound | most synergistic area score [1] | synergy score [1] | survival rate ([2]; 1 μM) | survival rate ([2]; 10 μM) | IC50 [2] | survival rate ([3]; 1 μM) | survival rate ([3]; 10 μM) | IC50 [3] | synergy score (in parentheses) ([4]; drug cisplatin + additive) | synergy score (in parentheses) ([4]; drug doxorubicin + additive) | synergy score (in parentheses) ([4]; drug etoposide + additive) | synergy score (in parentheses) ([4]; drug methotrexate + additive) | synergy score (in parentheses) ([4]; drug mitoxantrone + additive) | synergy score (in parentheses) ([4]; drug vincristine + additive) | most synergistic area score [5] | synergy score [5] | ERP value, cisplatin + compound [6] | ERP = IC50(drug)MDR/IC50(drug+4)MDR [6]
1 | O=C1N/C(=C\[c-]2cccc2)C(=O)N2CCC[C@@H]12.[Fe+2].c1cc[cH-]c1 [(S,Z)-4a] | 3.56 | –3.78 | 96 ± 4.8% | 93 ± 1.1% | > 100 µM | 93 ± 0.9% | 98 ± 2.3% | > 100 µM | −4.74 | −4.15 | −4.45 | −5.99 | −1.66 | −0.36 | 15.88 | 4.27 | 4.86 | 4.86
2 | O=C1N/C(=C\c2ccc(-[c-]3cccc3)cc2)C(=O)N2CCC[C@@H]12.[Fe+2].c1cc[cH-]c1 [(S,Z)-4d] | 0.00 | –5.20 | 92 ± 0.8% | 96 ± 0.9% | > 100 µM | 99 ± 0.8% | 95 ± 1.5% | > 100 µM | −2.46 |  | 0.64 | −2.64 | -1.93 | -1.29 | 24.93 | 13.6 | 2.58 | 2.58
3 | O=C1N/C(=C\c2ccccc2-[c-]2cccc2)C(=O)N2CCC[C@@H]12.[Fe+2].c1cc[cH-]c1 [(S,Z)-4b] | 1.57 | –5.03 | 97 ± 1.0% | 87 ± 3.0% | > 100 µM | 97 ± 0.8% | 96 ± 3.5% | 52.2 µM | −5.00 | −2.67 | −5.23 | 3.26 | −3.17 | 5.77 | 27.24 | 7.15 | 4.53 | 4.53
4 | O=C1N/C(=C/c2cccc(-[c-]3cccc3)c2)C(=O)N2CCC[C@@H]12.[Fe+2].c1cc[cH-]c1 [(S,E)-4c] | 0.00 | –2.83 | 95 ± 1.5% | 95 ± 4.5% | > 100 µM | 93 ± 1.8% | 96 ± 4.6% | > 100 µM | −4.66 | −1.89 | −4.80 | −4.31 | 0.86 |  |  |  | 3.45 | 
5 | O=C1N/C(=C/c2ccccc2)C(=O)N2CCC[C@@H]12 [(S,E)-4e] |  |  | 96 ± 2.4% | 95 ± 0.7% |  | 93 ± 0.3% | 95 ± 3.4% |  | −4.17 | −4.78 | −1.15 |  | −3.41 |  |  |  | 1.98 | 1.98
6 | O=C1N/C(=C\c2ccccc2)C(=O)N2CCC[C@@H]12 [(S,Z)-4e] |  |  | 96 ± 0.7% | 94 ± 2.9% |  | 96 ± 4.8% | 95 ± 4.0% |  | −3.94 | −3.90 | −3.96 |  | 1.87 |  |  |  | 0.70 | 0.70
